Measurements as given in ChEMBL document CHEMBL1142758, “Neuroprotective effects of naturally occurring biflavonoids” (2005).

Legend:
Format in all cases: functional
[1] = Protective effect of compound on hydrogen peroxide-induced cell death in SH-SY5Y cells (concentration = 10 uM)
[2] = Protective effect of compound on Ab25 35-induced cell death in SH-SY5Y cells (concentration = 4 uM)
[3] = Protective effect of compound on SNP-induced cell death in SH-SY5Y cells (concentration = 10 uM)
[4] = Protective effect of compound on hydrogen peroxide-induced cell death in SH-SY5Y cells (concentration = 2 uM)
[5] = Protective effect of compound on Ab25 35-induced cell death in SH-SY5Y cells (concentration = 0.2 uM)
[6] = Protective effect of compound on SNP-induced cell death in SH-SY5Y cells (concentration = 2 uM)
[7] = Protective effect of compound on SNP-induced cell death in SH-SY5Y cells (concentration = 0.4 uM)
[8] = Protective effect of compound on hydrogen peroxide-induced cell death in SH-SY5Y cells (concentration = 0.4 uM)
[9] = Protective effect of compound on Ab25 35-induced cell death in SH-SY5Y cells (concentration = 10 uM)
[10] = Protective effect of compound on compounds on SNP-induced cell death in SH-SY5Y cells (concentration = 0.4 uM)
[11] = Protective effect of test compound on hydrogen peroxide-induced cell death in SH-SY5Y cells (concentration = 2 uM)
[12] = Protective effect of test compound on Ab25 35-induced cell death in SH-SY5Y cells (concentration = 0.2 uM)
[13] = Protective effect of test compound on SNP-induced cell death in SH-SY5Y cells (concentration = 0.4 uM)
[14] = Protective effect of test compound on SNP-induced cell death in SH-SY5Y cells (concentration = 2 uM)
[15] = Protective effect of test compound on Ab25 35-induced cell death in SH-SY5Y cells (concentration = 4 uM)
[16] = Protective effect of test compound on SNP-induced cell death in SH-SY5Y cells (concentration = 10 uM)
[17] = Protective effect of test compound on Ab25 35-induced cell death in SH-SY5Y cells (concentration = 10 uM)
[18] = Protective effects of test compounds on Ab25 35-induced cell death in SH-SY5Y cells (concentration = 10 uM)

Structure (SMILES) | Inhibition [1] | Inhibition [2] | Inhibition [3] | Inhibition [4] | Inhibition [5] | Inhibition [6] | Inhibition [7] | Inhibition [8] | Inhibition [9] | Inhibition [10] | Inhibition [11] | Inhibition [12] | Inhibition [13] | Inhibition [14] | Inhibition [15] | Inhibition [16] | Inhibition [17] | Inhibition [18]
COC1=CC2OC(c3ccc(O)cc3)=CC(=O)C2C(O)=C1Oc1ccc(-c2cc(=O)c3c(O)cc(O)cc3o2)cc1 (stereo unspecified) | 68.1% | 11% | -25% | 23.9% | 18% | -14.8% | -16% | -3.5% | -0.2% |  |  |  |  |  |  |  |  | 
COc1cc(O)c2c(=O)cc(-c3ccc(OC)c(C4=C(O)C=C(O)C5C(=O)C=C(c6ccc(O)cc6)OC45)c3)oc2c1 (stereo unspecified) | 35.7% | 43.6% | 32.4% | 12.2% | 29.5 µM | 7.8% |  | 11.3% | 5.6% | -0.1 µM |  |  |  |  |  |  |  | 
COc1ccc(-c2cc(=O)c3c(O)cc(O)cc3o2)cc1Oc1ccc(-c2cc(=O)c3c(O)cc(O)cc3o2)cc1 | 12.1% | 0.9% | 1.6% | -1.2% | 13% | 0.1% | 2.9% | 1.8% | 14.8% |  |  |  |  |  |  |  |  | 
O=C1C=C(c2ccc(O)cc2)OC2C=C(O)C(Oc3ccc(-c4cc(=O)c5c(O)cc(O)cc5o4)cc3)=C(O)C12 (stereo unspecified) | 56% | -19.9% | 15% | 19.8% | 8.7% | -9.4% | 2.5% | 7.8% | -10% |  |  |  |  |  |  |  |  | 
COc1ccc(C2=CC(=O)C3C(O)=CC(O)=C(c4cc(-c5cc(=O)c6c(O)cc(O)cc6o5)ccc4OC)C3O2)cc1 (stereo unspecified) | 55.1% | 59.1% | 23.5% | 28.7% | 19.7% | 10.5% | 6.9% | 40.1% | 43.8 µM |  |  |  |  |  |  |  |  | 
COc1ccc(-c2cc(=O)c3c(O)cc(O)cc3o2)cc1C1=C(O)C=C(O)C2C(=O)C=C(c3ccc(O)cc3)OC12 (stereo unspecified) | 62.9% | 1.9% | 11% | 30.4% | 9.8% | 4.8% | 2.5% | 25.3% | -7.5% |  |  |  |  |  |  |  |  | 
O=C1C=C(c2ccc(O)cc2)OC2C(c3cc(-c4cc(=O)c5c(O)cc(O)cc5o4)ccc3O)=C(O)C=C(O)C12 (stereo unspecified) | 62% |  |  |  |  |  |  | 27% |  |  | 39.9 µM | 3.6 µM | 5.2 µM | 16.4 µM | 25.4 µM | 40.5 µM | 31.8 µM | 
COc1ccc(C2=CC(=O)C3C(O)=CC(O)=C(c4cc(-c5cc(=O)c6c(O)cc(OC)cc6o5)ccc4OC)C3O2)cc1 (stereo unspecified) | 69.5% | 38.1% | 4.6% | 52.1% | 27.1% | 8.1% | 28.5% | 39.5% |  |  |  |  |  |  |  |  |  | 35.1 µM
O=c1cc(-c2ccc(Oc3cc(-c4cc(=O)c5c(O)cc(O)cc5o4)ccc3O)cc2)oc2cc(O)cc(O)c12 [OCHNAFLAVONE] | -32.7% | -32.1% | 9.3% | -12.1% | -12.7% | 7.7% | 10% | -3.6% | -1.9% |  |  |  |  |  |  |  |  | 
